In one experiment the target is T1, trypsin (Bos taurus, UniProt P00760).
T1 sequence (P00760 24-246): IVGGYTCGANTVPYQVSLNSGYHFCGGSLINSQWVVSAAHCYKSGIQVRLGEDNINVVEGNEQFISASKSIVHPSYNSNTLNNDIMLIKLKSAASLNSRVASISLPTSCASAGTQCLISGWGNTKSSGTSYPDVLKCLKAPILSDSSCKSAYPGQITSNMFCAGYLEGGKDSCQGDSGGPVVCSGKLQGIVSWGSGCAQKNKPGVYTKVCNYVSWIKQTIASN
Briefly: serine protease inhibition screen, trypsin. It is filed as biochemical. Conditions: at 100 μM, the highest concentration tested.

The next experiment addresses aspartic protease BACE1 (Homo sapiens, UniProt P56817). As to the kind of experiment: aspartic protease inhibition, BACE1. Format: biochemical. As to conditions: at concentrations up to 30 μM.

Sequence of aspartic protease BACE1 (P56817 46-501): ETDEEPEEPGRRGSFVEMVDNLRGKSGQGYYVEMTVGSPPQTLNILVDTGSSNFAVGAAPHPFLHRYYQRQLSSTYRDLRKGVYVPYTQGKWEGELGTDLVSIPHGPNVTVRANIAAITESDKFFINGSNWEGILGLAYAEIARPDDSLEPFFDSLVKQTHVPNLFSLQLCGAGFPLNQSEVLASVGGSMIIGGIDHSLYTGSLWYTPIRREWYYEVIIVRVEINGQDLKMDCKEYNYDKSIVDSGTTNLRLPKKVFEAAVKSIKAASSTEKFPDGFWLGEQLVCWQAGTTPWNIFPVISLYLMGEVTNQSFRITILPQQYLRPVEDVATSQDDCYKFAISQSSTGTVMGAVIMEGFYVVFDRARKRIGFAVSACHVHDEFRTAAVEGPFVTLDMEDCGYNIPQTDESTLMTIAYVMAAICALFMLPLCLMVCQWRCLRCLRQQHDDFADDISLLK

Turning to `C/C=C1\NC(=O)[C@@H](NC(=O)[C@@H](NC(=O)[C@H](C)NC(=O)CCC)C(C)C)[C@@H](C)OC(=O)[C@H](C(C)C)NC(=O)[C@H](Cc2ccc(O)cc2)N(C)C(=O)[C@H](Cc2ccccc2)N2C(=O)[C@H](CC[C@H]2O)NC1=O` [Compound 1, Bouillomide A], the inhibition of trypsin entry on trypsin is reported as “no inhibition”. On aspartic protease BACE1, the “inhibition of BACE1” value is recorded as “does not inhibit”.
`C/C=C1\NC(=O)[C@@H](NC(=O)[C@@H](NC(=O)[C@H](C)NC(=O)CCC)C(C)C)[C@@H](C)OC(=O)[C@H](C(C)C)NC(=O)[C@H](Cc2ccc(O)c(Br)c2)N(C)C(=O)[C@H](Cc2ccccc2)N2C(=O)[C@H](CC[C@H]2O)NC1=O` [Compound 2, Bouillomide B]: the inhibition of trypsin result on trypsin is reported as “no inhibition”.

Source of the values: article PMC2987581 (Tetrahedron letters, 2010).
